For test [1], the target named is T1, WT 5-HT3A receptor (Mus musculus, UniProt P23979).
T1 construct: expressed in transfected cells; host or cells: HEK293
T1 sequence (P23979 24-483 isoform P23979-2 limits assumed): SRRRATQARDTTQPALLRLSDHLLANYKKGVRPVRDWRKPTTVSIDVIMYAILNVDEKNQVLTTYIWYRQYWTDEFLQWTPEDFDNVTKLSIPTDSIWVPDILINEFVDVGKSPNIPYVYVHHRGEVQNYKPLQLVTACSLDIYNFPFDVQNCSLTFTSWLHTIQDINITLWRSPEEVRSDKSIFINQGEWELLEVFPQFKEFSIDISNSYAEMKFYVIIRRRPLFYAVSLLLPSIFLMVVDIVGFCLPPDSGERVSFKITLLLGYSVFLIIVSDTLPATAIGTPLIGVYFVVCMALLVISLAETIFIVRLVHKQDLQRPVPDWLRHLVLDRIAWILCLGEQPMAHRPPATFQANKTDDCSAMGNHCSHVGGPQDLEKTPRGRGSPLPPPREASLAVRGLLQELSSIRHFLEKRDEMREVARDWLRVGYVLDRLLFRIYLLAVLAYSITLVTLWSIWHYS
The test can be described thus: [3H]GR65630 saturation binding, WT receptor, HEK293 cell membranes. The conditions noted are these: mean and SEM, n ≥ 3. The method, then:
(§1) The mouse 5-HT3A cDNA (Q6J1J7) in pcDNA3.1 (for HEK cell transfection) or pGEMHE (for RNA production) was modified by QuikChange site-directed mutagenesis (Agilent Technologies) to create point mutants (verified by sequencing).
(§2) Human embryonic kidney (HEK) 293 cells were maintained at 37 °C at 5% CO2 in a humidified atmosphere, in Dulbecco's Modified Eagle's Medium/Nutrient Mix F12 (1:1) (Invitrogen, Paisley, UK) with GlutaMAX^TM and 10% fetal bovine serum (GE Healthcare) (DMEM/FBS) and passaged when confluent. Five micrograms of WT or mutant 5-HT3A DNA and 30 μl polyethyleneamine (Polysciences) incubated for 10 min in 1 mL DMEM was added to 60% confluent HEK293 cells for transfection, and cells grown for 2 days before assays.
(§3) This was performed as previously described. Lummis and Thompson ([2013]) Briefly receptors in crude HEK293 cell membranes were labeled with the 5-HT3R antagonist [^3H]GR65630 by incubation in 0.5 mL 10 mM HEPES buffer pH 7.5 for 1 h on ice, using 1 μM quipazine to determine non-specific binding. Data were analyzed in GraphPad Prism by iterative curve fitting.

Test [2] concerns the target T2, 5-HT3A receptor M235A (Mus musculus, UniProt P23979, M262A).
T2 construct: expressed in transfected cells; host or cells: HEK293
T2 sequence (P23979 24-489 M262A): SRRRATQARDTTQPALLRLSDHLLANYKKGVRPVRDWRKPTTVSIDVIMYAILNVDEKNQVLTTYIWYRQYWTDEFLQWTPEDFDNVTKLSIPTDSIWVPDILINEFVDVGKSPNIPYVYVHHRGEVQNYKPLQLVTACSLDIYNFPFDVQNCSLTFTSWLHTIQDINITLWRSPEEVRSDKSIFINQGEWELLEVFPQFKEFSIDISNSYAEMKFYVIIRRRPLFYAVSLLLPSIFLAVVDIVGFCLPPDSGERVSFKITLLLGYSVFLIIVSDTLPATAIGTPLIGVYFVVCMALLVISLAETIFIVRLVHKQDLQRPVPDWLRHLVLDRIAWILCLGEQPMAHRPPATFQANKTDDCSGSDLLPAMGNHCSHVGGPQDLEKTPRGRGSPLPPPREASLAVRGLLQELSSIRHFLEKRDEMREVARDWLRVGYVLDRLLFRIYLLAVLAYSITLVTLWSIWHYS
The test can be described thus: [3H]GR65630 saturation binding, M235A receptor, HEK293 cell membranes. The conditions noted are these: mean and SEM, n ≥ 3. On the procedure:
as §1, §2, §3

Test [3] deals with T3, 5-HT3A receptor K255L (Mus musculus, UniProt P23979, K282L).
T3 construct: expressed in transfected cells
T3 sequence (P23979 24-489 K282L): T2 sequence (P23979 24-489 M262A) with A239M, K259L
Nature of the test: [3H]GR65630 saturation binding, K255L receptor, HEK293 cell membranes. The conditions noted are these: mean and SEM, n ≥ 3. The method, then: as §1, §2, §3

Test [4] addresses T4, 5-HT3A receptor Y441A (Mus musculus, UniProt P23979, Y468A).
T4 sequence (P23979 24-489 Y468A): T2 sequence (P23979 24-489 M262A) with A239M, Y445A
On the set-up: expressed in transfected cells; method as in Mesoy et al., [2019]. The conditions noted are these: HEK293 cells, ref Mesoy et al., [2019]; cited from earlier work.

Test [5] has as its target T5, 5-HT3A receptor D238A (Mus musculus, UniProt P23979, D265A).
T5 sequence (P23979 24-489 D265A): T2 sequence (P23979 24-489 M262A) with A239M, D242A
The test can be described thus: [3H]GR65630 saturation binding, D238A receptor, HEK293 cell membranes. The conditions noted are these: mean and SEM, n ≥ 3. On the set-up: expressed in transfected cells; host or cells: HEK293. The method, then:
as §1, §2, §3

Test [6] deals with T6, 5-HT3A receptor C290A (Mus musculus, UniProt P23979, C317A).
T6 sequence (P23979 24-489 C317A): T2 sequence (P23979 24-489 M262A) with A239M, C294A
Nature of the test: [3H]GR65630 saturation binding, C290A receptor, HEK293 cell membranes. The arrangement: expressed in transfected cells; host or cells: HEK293. The conditions noted are these: mean and SEM, n ≥ 3. On the procedure: as §1, §2, §3

Residue numbers refer to the chain shown, from its start.

The values that follow come from PMC8119899, “A Single Mutation in the Outer Lipid-Facing Helix of a Pentameric Ligand-Gated Ion Channel Affects Channel Function Through a Radially-Propagating Mechanism” (Frontiers in Molecular Biosciences, 2021).

For orientation: Kd means the constant that tells how readily two partners part at equilibrium.

Regarding `Cc1[nH]cnc1CCC(=O)c1cn(C)c2ccccc12` [[^3H]GR65630], the Bmax in test [1] worked out at 1.2 ± 0.8 pmol/mg protein; in test [2], 2.4 ± 0.4 pmol/mg protein; in test [3], 0.4 ± 0.2 pmol/mg protein; in test [5], 1.8 ± 0.4 pmol/mg protein; in test [6] it was 3.8 ± 0.3 pmol/mg protein. Besides, the Kd turned out to be 0.18 ± 0.03 nM in test [1]; 0.7 ± 0.09 nM in test [2]; 0.17 ± 0.02 nM in test [3]; 0.5 ± 0.07 nM in test [5]; 0.85 ± 0.1 nM in test [6]. Also, the “level of [3H]GR65630 binding sites” value in test [4] is given as “high levels”.
